# In patent US9079930B2, “Substituted pyrimidines” (MERCK SHARP & DOHME CORP., priority 2011, dated 2015):
# Target: T1, FLAG-tagged full length PHD2 (Homo sapiens, UniProt Q9GZT9)
# T1 construct: FLAG-tagged full length PHD2 expressed in and purified from baculovirus-infected Sf9 cells; FLAG; made in house; host or cells: baculovirus-infected Sf9 cells
# Experiment: PHD2 inhibition assay (time resolved fluorescence, HIF-1α peptide hydroxylation, VHL complex detection)
# Assay type: biochemical
# Details: 0.2 μM 2-oxoglutarate, 0.5 μM HIF-1α peptide
# Protocol: To each well of a 96-well plate was added 1 μL of test compound in DMSO and 20 μl of assay buffer (50 mM Tris pH 7.4/0.01% Tween-20/0.1 mg/ml bovine serum albumin/10 μM ferrous sulfate/i mM sodium ascorbate/20 μg/ml catalase) containing 0.15 μg/ml FLAG-tagged full length PHD2 expressed in and purified from baculovirus-infected Sf9 cells. After a 30 min preincubation at room temperature, the enzymatic reactions were initiated by the addition of 4 μL of substrates (final concentrations of 0.2 μM 2-oxoglutarate and 0.5 μM HIF-1α peptide biotinyl-DLDLEMLAPYIPMDDDFQL (SEQ ID NO: 1)). After 2 hr at room temperature, the reactions were terminated and signals were developed by the addition of a 25 μL quench/detection mix to a final concentration of 1 mM ortho-phenanthroline, 0.1 mM EDTA, 0.5 nM anti-(His)6 LANCE reagent (Perkin-Elmer Life Sciences), 100 nM AF647-labeled streptavidin (Invitrogen), and 2 μg/ml (His)6-VHL complex (S. Tan (2001) Protein Expr. Purif. 21, 224-234). The ratio of time resolved fluorescence signals at 665 and 620 nm was determined, and percent inhibition was calculated relative to an uninhibited control sample run in parallel.
# T1 sequence (Q9GZT9 whole entry): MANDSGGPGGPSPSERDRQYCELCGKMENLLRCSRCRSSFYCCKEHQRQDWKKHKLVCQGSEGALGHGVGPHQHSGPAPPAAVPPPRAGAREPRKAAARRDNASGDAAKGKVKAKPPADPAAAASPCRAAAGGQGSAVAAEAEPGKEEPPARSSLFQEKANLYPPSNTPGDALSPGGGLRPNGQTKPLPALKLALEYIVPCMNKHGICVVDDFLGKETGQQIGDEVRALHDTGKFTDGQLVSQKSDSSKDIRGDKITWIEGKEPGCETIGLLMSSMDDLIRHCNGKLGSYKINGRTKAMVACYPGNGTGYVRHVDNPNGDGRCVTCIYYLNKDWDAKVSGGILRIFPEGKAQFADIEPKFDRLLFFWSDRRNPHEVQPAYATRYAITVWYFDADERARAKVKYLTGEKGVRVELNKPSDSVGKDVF
row,Structure (SMILES),IC50 [nM]
1,"CCOC(=O)CNP(=O)(NCC(=O)OCC)c1ccc(C(NC(=O)c2cnc(-c3cccnn3)nc2O)c2ccc(OC)cc2)cc1 (stereo not drawn) [Compound 31-1, Diethyl 2,2′-((4-((4-hydroxy-2-(pyridazin-3-yl)pyrimidine-5-carboxamido)(4-methoxyphenyl)methyl)phenyl)phosphoryl)bis(azanediyl)diacetate]",0.5 to 20
2,"CCOP(=O)(OCC)c1ccc(C(NC(=O)c2cnc(-c3cccnn3)nc2O)c2ccccc2)cc1 (stereo not drawn) [Compound 8-5, Diethyl 4-((4-hydroxy-2-(pyridazin-3-yl)pyrimidine-5-carboxamido)(phenyl)methyl)phenylphosphonate]",0.5 to 20
3,"C[C@@H](NC(=O)c1cnc(-n2cccn2)nc1O)c1ccc(P(=O)(O)O)cc1 [Compound 15-2, (R)-4-(1-(4-hydroxy-2-(1H-pyrazol-1-yl)pyrimidine-5-carboxamido)ethyl)phenyl phosphonic acid]",0.5 to 20
4,"CCOP(=O)(O)c1ccc(C(NC(=O)c2cnc(-c3ccccn3)nc2O)c2ccccc2)cc1 (stereo not drawn) [Compound 2-3, Ethyl 4-((4-hydroxy-2-(pyridin-2-yl)pyrimidine-5-carboxamido)(phenyl)methyl)phenylphosphonate]",0.5 to 20
5,"CCOP(=O)(O)c1ccc(C(C)NC(=O)c2cnc(-c3ccccn3)nc2O)cc1 (stereo not drawn) [Compound 3-3, Ethyl hydrogen 4-(1-(4-hydroxy-2-(pyridin-2-yl)pyrimidine-5-carboxamido)ethyl)phenylphosphonate]",100 to 10000
6,"CCOP(=O)(OCC)c1ccc(C(C)C(=O)Nc2cnc(-n3cccn3)nc2O)cc1 (stereo not drawn) [Compound 11-1, Diethyl 4-(1-(4-hydroxy-2-(1H-pyrazol-1-yl)pyrimidin-5-ylamino)-1-oxopropan-2-yl)phenylphosphonate]",100 to 10000
7,"CC(C)OP(=O)(OC(C)C)C(NC(=O)c1cnc(-c2ccccn2)nc1O)c1ccccc1 (stereo not drawn) [Compound 6-1, Diisopropyl (4-hydroxy-2-(pyridin-2-yl)pyrimidine-5-carboxamido)(phenyl)methyl phosphonate]",0.5 to 20
8,"CP(=O)(O)c1ccc([C@@H](NC(=O)c2cnc(-n3cccn3)nc2O)c2ccc(F)cc2F)cc1 [Compound 20-1, 4-((R)-(2,4-difluorophenyl)(4-hydroxy-2-(1H-pyrazol-1-yl)pyrimidine-5-carboxamido)methyl)phenyl(methyl)phosphinic acid]",0.5 to 20
9,"CP(=O)(O)c1ccc([C@@H](NC(=O)c2cnc(-n3cc(F)cn3)nc2O)c2ccc(F)cc2)cc1 [Compound 28-1, 4-((S)-(2-(4-fluoro-1H-pyrazol-1-yl)-4-hydroxypyrimidine-5-carboxamido)(4-fluorophenyl)methyl)phenyl(methyl)phosphinic acid]",100 to 10000
10,"CCOC(=O)[C@H](C)NP(=O)(N[C@@H](C)C(=O)OCC)c1ccc(C(NC(=O)c2cnc(-c3cccnn3)nc2O)c2ccc(OC)cc2)cc1 (stereo partly drawn) [Compound 31-2, (2S,2′S)-Diethyl 2,2′-((4-((4-hydroxy-2-(pyridazin-3-yl)pyrimidine-5-carboxamido)(4-methoxyphenyl)methyl)phenyl)phosphoryl)bis(azanediyl)dipropanoate]",0.5 to 20
11,"CCOC(=O)C(C)(C)NP(=O)(NC(C)(C)C(=O)OCC)c1ccc(C(NC(=O)c2cnc(-c3ccccn3)nc2O)c2ccc(OC)cc2)cc1 (stereo not drawn) [Compound 1-1-4, diethyl 2,2′-((4-((4-hydroxy-2-(pyridin-2-yl)pyrimidine-5-carboxamido)(4-methoxyphenyl)methyl)phenyl)phosphoryl)bis(azanediyl)bis(2-methylpropanoate)]",0.5 to 20
12,"CP(=O)(O)c1ccc([C@@H](NC(=O)c2cnc(-n3cccn3)nc2O)c2ccc(F)cc2)cc1 [Compound 19-1, 4-((S)-(4-fluorophenyl)(4-hydroxy-2-(1H-pyrazol-1-yl)pyrimidine-5-carboxamido)methyl)phenyl(methyl)phosphinic acid]",0.5 to 20
13,"CP(=O)(O)c1ccc(C(NC(=O)c2cnc(-n3cccn3)nc2O)c2ccc(F)cc2)cc1 (stereo not drawn) [Compound 17-1, 4-((4-fluorophenyl)(4-hydroxy-2-(1H-pyrazol-1-yl)pyrimidine-5-carboxamido)methyl)phenyl(methyl)phosphinic acid]",0.5 to 20
14,"CP(=O)(O)c1ccc([C@H](NC(=O)c2cnc(-n3cc(F)cn3)nc2O)c2ccc(F)cc2)cc1 [Compound 29-1, 4-((R)-(2-(4-fluoro-1H-pyrazol-1-yl)-4-hydroxypyrimidine-5-carboxamido)(4-fluorophenyl)methyl)phenyl(methyl)phosphinic acid]",0.5 to 20
15,"C[C@H](NC(=O)c1cnc(-c2ccccn2)nc1O)c1ccc(P(=O)(O)O)cc1 [Compound 3-7, (S)-4-(1-(4-hydroxy-2-(pyridin-2-yl)pyrimidine-5-carboxamido)ethyl)phenylphosphonic acid]",100 to 10000
16,"O=C(NC(c1ccccc1)c1ccc(P(=O)(O)O)cc1)c1cnc(-c2ccccn2)nc1O (stereo not drawn) [Compound 2-2, 4-((4-hydroxy-2-(pyridin-2-yl)pyrimidine-5-carboxamido)(phenyl)methyl)phenyl phosphonic acid]",0.5 to 20
17,"CP(=O)(O)c1ccc([C@H](NC(=O)c2cnc(-n3cccn3)nc2O)c2ccccc2)cc1 [Compound 23-1, 4-((R)-(4-hydroxy-2-(1H-pyrazol-1-yl)pyrimidine-5-carboxamido)(phenyl)methyl)phenyl(methyl)phosphinic acid]",0.5 to 20
18,"CCOP(=O)(O)c1ccc(C(NC(=O)c2cnc(-c3ccccn3)nc2O)c2ccccc2)cn1 (stereo not drawn) [Compound 4-2, Ethyl hydrogen 5-((4-hydroxy-2-(pyridin-2-yl)pyrimidine-5-carboxamido)(phenyl)methyl)pyridin-2-ylphosphonate]",0.5 to 20
19,"COc1ccc(C(NC(=O)c2cnc(-n3cccn3)nc2O)c2ccc([PH](=O)O)cc2)cc1 (stereo not drawn) [Compound 9-1, 4-((4-Hydroxy-2-(1H-pyrazol-1-yl)pyrimidine-5-carboxamido)(4-methoxyphenyl)methyl)phenylphosphinic acid]",0.5 to 20
20,"CCOC(=O)C(C)NP(=O)(N[C@@H](C)C(=O)OCC)c1ccc(C(NC(=O)c2cnc(-c3ccccn3)nc2O)c2ccc(OC)cc2)cc1 (stereo in doubt) [Compound 1-1-3, (2S,2′S)-diethyl 2,2′-((4-((4-hydroxy-2-(pyridin-2-yl)pyrimidine-5-carboxamido)(4-methoxyphenyl)methyl)phenyl)phosphoryl)bis(azanediyl)dipropanoate]",20 to 100
21,"CC(C)OP(=O)(O)C(NC(=O)c1cnc(-c2ccccn2)nc1O)c1ccccc1 (stereo not drawn) [Compound 6-2, Isopropyl Hydrogen (4-hydroxy-2-(pyridin-2-yl)pyrimidine-5-carboxamido)(phenyl)methylphosphonate]",20 to 100
22,"CCOP(=O)(OCC)c1ccc(C(NC(=O)c2cnc(-c3ccccn3)nc2O)c2ccc(OC)cc2)cc1 (stereo not drawn) [Compound 1-1-1, Diethyl 4-((4-hydroxy-2-(pyridin-2-yl)pyrimidine-5-carboxamido)(4-methoxyphenyl)methyl)phenylphosphonate]",0.5 to 20
23,"CCOP(=O)(OCC)c1ccc(C(NC(=O)c2cnc(-c3ccccn3)nc2O)c2ccccc2)cn1 (stereo not drawn) [Compound 4-1, Diethyl 5-((4-hydroxy-2-(pyridin-2-yl)pyrimidine-5-carboxamido)(phenyl)methyl)pyridin-2-ylphosphonate]",0.5 to 20
24,"CP(=O)(O)c1ccc([C@H](NC(=O)c2cnc(-n3cccn3)nc2O)c2ccc(F)cc2F)cc1 [Compound 21-1, 4-((S)-(2,4-difluorophenyl)(4-hydroxy-2-(1H-pyrazol-1-yl)pyrimidine-5-carboxamido)methyl)phenyl(methyl)phosphinic acid]",0.5 to 20
25,"C[C@@H](NC(=O)c1cnc(-c2ccccn2)nc1O)c1ccc(P(=O)(O)O)cc1 [Compound 3-5, (R)-4-(1-(4-hydroxy-2-(pyridin-2-yl)pyrimidine-5-carboxamido)ethyl)phenylphosphonic acid]",100 to 10000
26,"CCOP(=O)(OCC)c1ccc(C(C)NC(=O)c2cnc(-c3ccccn3)nc2O)cc1 (stereo not drawn) [Compound 3-1, Diethyl 4-(1-(4-hydroxy-2-(pyridin-2-yl)pyrimidine-5-carboxamido)ethyl)phenyl phosphonate]",20 to 100
27,"CP(=O)(O)c1ccc([C@H](NC(=O)c2cnc(-n3cccn3)nc2O)c2ccc(F)cc2)cc1 [Compound 18-1, 4-((R)-(4-fluorophenyl)(4-hydroxy-2-(1H-pyrazol-1-yl)pyrimidine-5-carboxamido)methyl)phenyl(methyl)phosphinic acid]",0.5 to 20
28,"CCOP(=O)(OCC)c1ccc(C(C)(C)C(=O)Nc2cnc(-n3cccn3)nc2O)cc1 [Compound 12-1, Diethyl 4-(1-(4-hydroxy-2-(1H-pyrazol-1-yl)pyrimidin-5-ylamino)-2-methyl-1-oxopropan-2-yl)phenylphosphonate]",100 to 10000
29,"CCOP(=O)(OCC)c1ccc(C(C)C(=O)Nc2cnc(-c3ccccn3)nc2O)cc1 (stereo not drawn) [Compound 7-1, Diethyl 4-(1-(4-hydroxy-2-(pyridin-2-yl)pyrimidin-5-ylamino)-1-oxopropan-2-yl)phenyl phosphonate]",100 to 10000
30,"CC(NC(=O)c1cnc(-c2ccccn2)nc1O)c1ccc(P(=O)(O)O)cc1 (stereo not drawn) [Compound 3-2, 4-(1-(4-hydroxy-2-(pyridin-2-yl)pyrimidine-5-carboxamido)ethyl)phenylphosphonic acid]",100 to 10000
